Counter-ions that a name gives are not always drawn.
Target: MASP-2 CCP2-SP (Homo sapiens (Human), UniProt O00187)
Assay: MASP-2 co-crystallization, X-ray crystallography and structure analysis (H-bonds, van der Waals contacts);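 on Ligand-pharmacophore element distance, pharmacophore element C2: distance from averaged pharmacophore element to bound ligand; missing value means element absent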;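 on Ligand-pharmacophore element distance, pharmacophore element C3: distance from averaged pharmacophore element to bound ligand; missing value means element absent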;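 on Ligand-pharmacophore element distance, pharmacophore element C4: distance from averaged pharmacophore element to bound ligand; missing value means element absent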;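 on Ligand-pharmacophore element distance, pharmacophore element C5: distance from averaged pharmacophore element to bound ligand; missing value means element absent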
Set-up: van der Waals contact distance, MASP-2 HIS 483 atom CD2 / van der Waals contact distance, MASP-2 HIS 483 atom NE2 / van der Waals contact distance, SER 654 C to compound atom / van der Waals contact distance, SER 654 O to compound atom / van der Waals contact distance, TRP 655 C to compound atom / van der Waals contact distance, MASP-2 GLY 528 atom CA / van der Waals contact distance TRP 655 atom CZ3 / van der Waals contact distance TRP 655 atom N / van der Waals contact distance TRP 655 atom CE3 / van der Waals contact distance GLY 656 atom C / van der Waals contact distance GLY 656 atom CA / van der Waals contact distance GLY 656 atom O / van der Waals contact distance, MASP-2 TYR 607 atom CD1 / van der Waals contact distance, MASP-2 PRO 606 atom O / d(C3,CA1) / d(CA1,N1)2 / d(H4,O1) / d(H4,O2) / d(O1,O2) / d(CA1,O2) / d(CA6,O1) / d(CA6,O2) / d(CA1,C5) / d(O2,H3) / d(N2,C2) / d(CA5,N2) / d(N2,C4) / d(N2,C6) / d(N2,CA3) / d(N2,O3) / d(O4,H2): unit not given beside the values
Details: for H-bond distance to MASP-2 SER 628 atom O: SER 628 O; for H-bond distance to MASP-2 SER 654 atom O: SER 654 O; for H-bond distance to MASP-2 SER 657 atom O: SER 657 O; for van der Waals contact distance, MASP-2 HIS 483 atom CD2 / van der Waals contact distance, MASP-2 HIS 483 atom NE2: Table A2-1; for van der Waals contact distance, VAL 653 CG1 to compound atom: Table A2-11; for van der Waals contact distance TRP 655 atom CE3 / van der Waals contact distance TRP 655 atom CZ3: Table A2-13; for van der Waals contact distance TRP 655 atom CE3: MASP-2 TRP 655 CE3, compound atom in line below; for van der Waals contact distance TRP 655 atom CZ3: MASP-2 TRP 655 CZ3; for Ligand-pharmacophore element distance, pharmacophore element C2 / Ligand-pharmacophore element distance, pharmacophore element C3 / Ligand-pharmacophore element distance, pharmacophore element C4 / Ligand-pharmacophore element distance, pharmacophore element C5 / Ligand-pharmacophore element distance, pharmacophore element C6 / Ligand-pharmacophore element distance, pharmacophore element C7 / Ligand-pharmacophore element distance, pharmacophore element CA1 / Ligand-pharmacophore element distance, pharmacophore element CA2 / Ligand-pharmacophore element distance, pharmacophore element CA3 / Ligand-pharmacophore element distance, pharmacophore element CA4 / Ligand-pharmacophore element distance, pharmacophore element CA5 / Ligand-pharmacophore element distance, pharmacophore element CA6: Table A4-1; for d(C3,CA1) / d(CA1,N1)2 / d(CA1,O1) / d(CA1,O2) / d(H4,O1) / d(H4,O2) / d(O1,O2): Table A5-1 pharmacophore: distance between elements, S2/S1 region; for a(C3, CA1, O1) / a(CA1, O1, O2) / a(O1, O2, H4) / a(N1, CA1, O1) b): Table A6-1 pharmacophore angle; for a(N1, CA1, O1) b): Methyl-amino-pyridine compounds
In short: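 Human MASP-2 CCP2-SP, untagged or 6His-tagged, was expressed in E. coli and crystallized. Crystals were soaked with inhibitor in crystallization solution, flash-cooled in liquid nitrogen, and diffracted with synchrotron X-rays (wavelength 1.0). Structures were solved by molecular replacement from 1Q3X and partially refined.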

[1] = Table A5-2 pharmacophore distance, S3/S4 region
[2] = Table A7-1, between pharmacophore elements of the bound compound
[3] = Table A7-2, between pharmacophore elements of the bound compound

Sequence of MASP-2 CCP2-SP (O00187 445-686): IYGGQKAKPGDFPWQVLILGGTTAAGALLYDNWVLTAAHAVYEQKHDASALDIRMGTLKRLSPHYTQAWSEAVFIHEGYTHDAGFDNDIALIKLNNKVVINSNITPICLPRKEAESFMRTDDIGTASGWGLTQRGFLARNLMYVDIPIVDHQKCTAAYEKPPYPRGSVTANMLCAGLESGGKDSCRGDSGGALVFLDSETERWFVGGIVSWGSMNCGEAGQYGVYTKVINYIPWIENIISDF
Sequence of MASP-2 CCP2-SP (O00187 364-432 partner): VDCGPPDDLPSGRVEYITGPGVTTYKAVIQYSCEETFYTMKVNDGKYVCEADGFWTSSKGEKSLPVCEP

SMILES: Cc1cccc([C@H]2CN[C@@H](C(=O)N[C@@H](C)C(=O)NCc3ccc(N)nc3C)C2)c1 [compound 1257, (2R,4S)—N—((S)-1-(((6-Amino-2-methylpyridin-3-yl)methyl)amino)-1-oxopropan-2-yl)-4-(m-tolyl)pyrrolidine-2-carboxamide Dihydrochloride]
- H-bond distance to MASP-2 GLY 656 atom O (Table A1 (H-Bonds), GLY 656 O): 2.82
- H-bond distance to MASP-2 SER 628 atom O (Table A1 (H-Bonds)): 3.12
- H-bond distance to MASP-2 SER 654 atom O (Table A1 (H-Bonds)): 3.02
- H-bond distance to MASP-2 SER 657 atom O (Table A1 (H-Bonds)): 2.86
- van der Waals contact distance, MASP-2 HIS 483 atom CD2: 3.7
- van der Waals contact distance, MASP-2 HIS 483 atom NE2: 3.72
- van der Waals contact distance, MASP-2 PHE 529 atom CD1 (Table A2-3): 3.89
- van der Waals contact distance, MASP-2 PRO 606 atom O (Table A2-4): 3.38
- van der Waals contact distance, MASP-2 amino acid atom to compound atom (Table A2-5: TYR 607 (CE1, CE2, OH), PRO 608 (CD, CG), SER 611 (CA)): 3.8
- van der Waals contact distance, MASP-2 amino acid atom to compound atom (Table A2-9, ARG 630, AA atoms CG, CZ): 3.53
- van der Waals contact distance, VAL 653 CG1 to compound atom: 3.36
- van der Waals contact distance, SER 654 O to compound atom (Table A2-12): 3.73
- van der Waals contact distance, TRP 655 CA to compound atom (Table A2-12): 3.57
- van der Waals contact distance TRP 655 atom CE3: 3.87
- van der Waals contact distance TRP 655 atom CZ3: 3.77
- van der Waals contact distance, MASP-2 amino acid atom to compound atom (Table A2 section before Table A2-8): 3.86
- Ligand-pharmacophore element distance, pharmacophore element C2: 0
- Ligand-pharmacophore element distance, pharmacophore element C3: 0.1
- Ligand-pharmacophore element distance, pharmacophore element C4: 0
- Ligand-pharmacophore element distance, pharmacophore element C5: 0
- Ligand-pharmacophore element distance, pharmacophore element C6: 0.53
- Ligand-pharmacophore element distance, pharmacophore element C7: 0
- Ligand-pharmacophore element distance, pharmacophore element CA1: 0.65
- Ligand-pharmacophore element distance, pharmacophore element CA2: 0
- Ligand-pharmacophore element distance, pharmacophore element CA3: 0
- Ligand-pharmacophore element distance, pharmacophore element CA4: 0
- Ligand-pharmacophore element distance, pharmacophore element CA5: 1.2
- Ligand-pharmacophore element distance, pharmacophore element CA6: 0
- d(C3,CA1): 2.87
- d(CA1,N1)2: 1.35
- d(CA1,O1): 4.45
- d(CA1,O2): 4.03
- d(H4,O1): 4.43
- d(H4,O2): 3.84
- d(O1,O2): 3.61
- d(CA5,N2) [1]: 5.09
- d(N2,C6) [1]: 6.64
- d(O2,H3) [1]: 2.18
- d(O2,N2) [1]: 2.71
- a(C3, CA1, O1): 150.46
- a(CA1, O1, O2): 109.00
- a(O1, O2, H4): 128.83
- a(N1, CA1, O1) b): 174.64
- a(O1, O2, H3) (Table A6-2 pharmacophore angle): 132.63
- a(O1, O2, N2) (Table A6-2 pharmacophore angle): 141.45
- a(O2, N2, C6) (Table A6-2 pharmacophore angle): 105.30
- Pharmacophore torsion angle a(C3, CA1, O1, H4) [2]: 30.77
- Pharmacophore torsion angle a(H4, O1, O2, H3) [2]: 108.60
- Pharmacophore torsion angle a(H4, O1, O2, N2) [2]: 132.94
- Pharmacophore torsion angle a(N1, CA1, O1, H4) [2]: 11.94
- Pharmacophore torsion angle a(O1, H4, O2, CA1) [2]: −83.51
- Pharmacophore torsion angle a(O1, O2, N2, C6) [3]: 146.13
- Pharmacophore torsion angle a(O1, O2, N2, CA5) [3]: 134.25

SMILES: Cc1nc(N)ccc1CNC(=O)[C@H](C)NC(=O)[C@H]1C[C@@H](c2ccccc2)CCN1CCC(=O)O [compound 1411, 3-((2R,4S)-2-(((S)-1-(((6-Amino-2-methylpyridin-3-yl)methyl)amino)-1-oxopropan-2-yl)carbamoyl)-4-phenylpiperidin-1-yl)propanoic acid Trifluoroacetate salt]
- H-bond distance to MASP-2 ARG 630 atom NE (Table A1 (H-Bonds), ARG 630 NE): 2.66
- H-bond distance to MASP-2 ASP 627 atom OD2 (Table A1 (H-Bonds), ASP 627 OD2): 3.17
- H-bond distance to MASP-2 GLY 656 atom N (Table A1 (H-Bonds), GLY 656 N): 3.07
- H-bond distance to MASP-2 SER 628 atom O (Table A1 (H-Bonds)): 3.2
- H-bond distance to MASP-2 SER 654 atom O (Table A1 (H-Bonds)): 3.06
- H-bond distance to MASP-2 SER 657 atom O (Table A1 (H-Bonds)): 2.61
- van der Waals contact distance, MASP-2 amino acid atom to compound atom (Table A2): 3.8
- van der Waals contact distance, MASP-2 HIS 483 atom CD2: 3.51
- van der Waals contact distance, MASP-2 HIS 483 atom NE2: 3.46
- van der Waals contact distance, MASP-2 GLY 528 atom CA (Table A2-2): 3.85
- van der Waals contact distance, MASP-2 PHE 529 atom CE1 (Table A2-3): 3.69
- van der Waals contact distance, VAL 653 CG1 to compound atom: 3.52
- van der Waals contact distance TRP 655 atom CE3: 3.6
- van der Waals contact distance TRP 655 atom CZ3: 3.57
- Ligand-pharmacophore element distance, pharmacophore element C2: 0.42
- Ligand-pharmacophore element distance, pharmacophore element C3: 0.32
- Ligand-pharmacophore element distance, pharmacophore element C4: 0
- Ligand-pharmacophore element distance, pharmacophore element C5: 0
- Ligand-pharmacophore element distance, pharmacophore element C6: 0
- Ligand-pharmacophore element distance, pharmacophore element C7: 0
- Ligand-pharmacophore element distance, pharmacophore element CA1: 0.71
- Ligand-pharmacophore element distance, pharmacophore element CA2: 0.52
- Ligand-pharmacophore element distance, pharmacophore element CA3: 0
- Ligand-pharmacophore element distance, pharmacophore element CA4: 0
- Ligand-pharmacophore element distance, pharmacophore element CA5: 0
- Ligand-pharmacophore element distance, pharmacophore element CA6: 0
- d(C3,CA1): 2.87
- d(CA1,N1)2: 1.34
- d(CA1,O1): 4.37
- d(CA1,O2): 4.05
- d(H4,O1): 4.34
- d(H4,O2): 3.90
- d(O1,O2): 3.50
- d(N2,C2) [1]: 1.46
- d(N2,CA2) [1]: 5.72
- d(O2,H3) [1]: 4.13
- d(O2,N2) [1]: 2.68
- a(C3, CA1, O1): 149.02
- a(CA1, O1, O2): 109.85
- a(O1, O2, H4): 130.04
- a(N1, CA1, O1) b): 173.43
- a(O1, O2, H3) (Table A6-2 pharmacophore angle): 142.75
- a(O1, O2, N2) (Table A6-2 pharmacophore angle): 140.47
- a(O2, N2, C2) (Table A6-2 pharmacophore angle): 130.32
- a(O2, N2, CA2) (Table A6-2 pharmacophore angle): 155.94
- Pharmacophore torsion angle a(C3, CA1, O1, H4) [2]: 24.51
- Pharmacophore torsion angle a(H4, O1, O2, H3) [2]: 55.16
- Pharmacophore torsion angle a(H4, O1, O2, N2) [2]: 137.13
- Pharmacophore torsion angle a(N1, CA1, O1, H4) [2]: −2.21
- Pharmacophore torsion angle a(O1, H4, O2, CA1) [2]: −82.11
- Pharmacophore torsion angle a(O1, O2, N2, C2) [2]: 117.46
- Pharmacophore torsion angle a(O1, O2, N2, CA2) [3]: 127.52

Source: patent US12195427B2, “MASP-2 inhibitors and methods of use” (priority 2018, dated 2025)
